# Data reported in US20040072162A1, “Hiv peptides and nucleic acids encoding them for diagnosis and control of hiv infection” (priority 2000, published 2004).
# Peptide text beside a SMILES is read from it.
# Target: HLA-A2 MHC-I (HLA-A*0204) (Homo sapiens, UniProt P04439, D140Y/D185E/D98H/E176V/E277Q/G131W/G231S/I119V/I121M/I166T/I218V/L300P/L318F/N151K/N90K/P208A/P217A/Q86G/Q94H/R138H/R169H/T345S)
# Test: biochemical
row,SMILES,Kd
1,CC[C@H](C)[C@H](NC(=O)[C@H](CCC(N)=O)NC(=O)[C@H](CCC(=O)O)NC(=O)[C@H](CCC(N)=O)NC(=O)[C@H](CC(C)C)NC(=O)[C@@H](N)[C@@H](C)O)C(=O)NCC(=O)N[C@@H](Cc1c[nH]c2ccccc12)C(=O)N[C@@H](CCSC)C(=O)O [8.56nat] (H-TLQEQIGWM-OH),245 nM
2,CC(C)C[C@H](NC(=O)[C@H](C)N)C(=O)NCC(=O)N1CCC[C@H]1C(=O)N[C@@H](C)C(=O)N[C@@H](C)C(=O)N[C@H](C(=O)N[C@@H](CC(C)C)C(=O)N[C@H](C(=O)O)C(C)C)[C@@H](C)O [8.64mod] (H-ALGPAATLV-OH),1.3 nM
3,CC(C)C[C@H](NC(=O)[C@H](C)N)C(=O)NCC(=O)N1CCC[C@H]1C(=O)N[C@@H](C)C(=O)N[C@@H](C)C(=O)N[C@H](C(=O)N[C@@H](CC(C)C)C(=O)N[C@@H](CCC(=O)O)C(=O)O)[C@@H](C)O [8.64nat] (H-ALGPAATLE-OH),830 nM
4,CSCC[C@H](NC(=O)[C@H](CCC(=O)O)NC(=O)[C@H](CCC(=O)O)NC(=O)[C@H](CC(C)C)NC(=O)[C@H](CC(C)C)NC(=O)[C@H](C)N)C(=O)N[C@@H](CCSC)C(=O)N[C@H](C(=O)N[C@H](C(=O)O)C(C)C)[C@@H](C)O [8.65mod] (H-ALLEEMMTV-OH),1.1 nM
5,CSCC[C@H](NC(=O)[C@H](CCC(=O)O)NC(=O)[C@H](CCC(=O)O)NC(=O)[C@H](CC(C)C)NC(=O)[C@@H](NC(=O)[C@H](C)N)[C@@H](C)O)C(=O)N[C@@H](CCSC)C(=O)N[C@H](C(=O)N[C@@H](C)C(=O)O)[C@@H](C)O [8.65nat] (H-ATLEEMMTA-OH),77 nM
6,CSCC[C@H](NC(=O)[C@H](CC(C)C)NC(=O)[C@@H](N)CCC(=O)O)C(=O)N[C@H](C(=O)N[C@@H](C)C(=O)N[C@@H](CS)C(=O)N[C@@H](CCC(N)=O)C(=O)NCC(=O)N[C@H](C(=O)O)C(C)C)[C@@H](C)O [8.66mod] (H-ELMTACQGV-OH),3970 nM
7,CC[C@H](C)[C@H](NC(=O)[C@@H](N)CC(N)=O)C(=O)N[C@@H](Cc1c[nH]c2ccccc12)C(=O)N[C@@H](C)C(=O)N[C@H](C(=O)N[C@@H](Cc1c[nH]cn1)C(=O)N[C@@H](C)C(=O)N[C@@H](CS)C(=O)N[C@H](C(=O)O)C(C)C)[C@@H](C)O [8.75natV] (H-NIWATHACV-OH),57 nM
8,CC(C)C[C@H](NC(=O)[C@@H](N)CCCCN)C(=O)N[C@H](C(=O)N1CCC[C@H]1C(=O)N[C@@H](CC(C)C)C(=O)N[C@@H](CS)C(=O)N[C@H](C(=O)N[C@H](C(=O)N[C@H](C(=O)O)C(C)C)[C@@H](C)O)C(C)C)[C@@H](C)O [8.76mod] (H-KLTPLCVTV-OH),43 nM
9,CC[C@H](C)[C@H](NC(=O)[C@H](CO)NC(=O)[C@H](C)NC(=O)[C@H](C)NC(=O)CNC(=O)[C@H](CC(C)C)NC(=O)[C@@H](N)[C@@H](C)O)C(=O)N[C@H](C(=O)N[C@H](C(=O)O)C(C)C)[C@@H](C)O [8.85mod] (H-TLGAASITV-OH),385 nM
10,CC(C)C[C@H](NC(=O)[C@H](C)N)C(=O)N[C@@H](CCC(=O)O)C(=O)N[C@@H](C)C(=O)N[C@@H](CCC(N)=O)C(=O)N[C@@H](CCC(N)=O)C(=O)N[C@@H](Cc1c[nH]cn1)C(=O)N[C@@H](CC(C)C)C(=O)N[C@H](C(=O)O)C(C)C [8.88mod] (H-ALEAQQHLV-OH),1.2 nM
11,CC[C@H](C)[C@H](NC(=O)[C@H](C)N)C(=O)N[C@@H](CCC(=O)O)C(=O)N[C@@H](C)C(=O)N[C@@H](CCC(N)=O)C(=O)N[C@@H](CCC(N)=O)C(=O)N[C@@H](Cc1c[nH]cn1)C(=O)N[C@@H](CC(C)C)C(=O)N[C@@H](CC(C)C)C(=O)O [8.88nat] (H-AIEAQQHLL-OH),850 nM
12,CC[C@H](C)[C@H](NC(=O)[C@H](CCCCN)NC(=O)[C@H](CC(C)C)NC(=O)[C@@H](N)Cc1ccc(O)cc1)C(=O)N[C@@H](Cc1ccccc1)C(=O)N[C@H](C(=O)N[C@@H](CCSC)C(=O)N[C@H](C(=O)N[C@H](C(=O)O)C(C)C)[C@@H](C)CC)[C@@H](C)CC [8.93mod] (H-YLKIFIMIV-OH),13 nM
13,CC[C@H](C)[C@H](NC(=O)[C@H](CCCCN)NC(=O)[C@@H](NC(=O)[C@@H](N)Cc1ccc(O)cc1)[C@@H](C)CC)C(=O)N[C@@H](Cc1ccccc1)C(=O)N[C@H](C(=O)N[C@@H](CCSC)C(=O)N[C@H](C(=O)N[C@H](C(=O)O)C(C)C)[C@@H](C)CC)[C@@H](C)CC [8.93nat] (H-YIKIFIMIV-OH),24 nM
14,CC(C)C[C@H](NC(=O)[C@@H](N)Cc1ccccc1)C(=O)N[C@@H](CC(N)=O)C(=O)N[C@H](C(=O)N1CCC[C@H]1C(=O)N1CCC[C@H]1C(=O)N[C@@H](CC(C)C)C(=O)N[C@H](C(=O)O)C(C)C)[C@@H](C)O [8.111mod] (H-FLNTPPLV-OH),5.6 nM
15,CC(C)C[C@H](NC(=O)[C@@H]1CCCN1C(=O)[C@@H]1CCCN1C(=O)[C@@H](NC(=O)[C@H](CC(N)=O)NC(=O)[C@@H](NC(=O)[C@@H](N)Cc1ccccc1)C(C)C)[C@@H](C)O)C(=O)N[C@H](C(=O)O)C(C)C [8.111nat],32 nM
16,CC[C@H](C)[C@H](NC(=O)[C@@H]1CCCN1C(=O)[C@H](Cc1ccccc1)NC(=O)[C@H](CC(C)C)NC(=O)[C@@H](N)CC(C)C)C(=O)N[C@@H](CO)C(=O)N1CCC[C@H]1C(=O)N[C@H](C(=O)O)C(C)C [8.115mod] (H-LLFPISPV-OH),16.2 nM
17,CC[C@H](C)[C@H](NC(=O)[C@@H]1CCCN1C(=O)[C@H](CO)NC(=O)[C@@H](NC(=O)[C@@H]1CCCN1C(=O)[C@H](Cc1ccccc1)NC(=O)[C@H](CC(N)=O)NC(=O)[C@@H](N)CC(C)C)[C@@H](C)CC)C(=O)O [8.115nat] (H-LNFPISPI-OH),29 nM
18,CC[C@H](C)[C@H](NC(=O)CNC(=O)[C@H](CC(C)C)NC(=O)[C@H](C)N)C(=O)N[C@H](C(=O)N[C@@H](CCC(N)=O)C(=O)N[C@@H](C)C(=O)N[C@H](C(=O)O)C(C)C)[C@@H](C)CC [8.116mod] (H-ALGIIQAV-OH),26 nM
19,CC[C@H](C)[C@H](NC(=O)CNC(=O)[C@H](CC(C)C)NC(=O)[C@H](C)N)C(=O)N[C@H](C(=O)N[C@@H](CCC(N)=O)C(=O)N[C@@H](C)C(=O)N[C@@H](CCC(N)=O)C(=O)O)[C@@H](C)CC [8.116nat] (H-ALGIIQAQ-OH),97 nM
20,CC(C)C[C@H](NC(=O)[C@H](CCCCN)NC(=O)[C@H](Cc1ccccc1)NC(=O)[C@H](CC(C)C)NC(=O)[C@@H](N)Cc1c[nH]c2ccccc12)C(=O)N[C@H](C(=O)N1CCC[C@H]1C(=O)N[C@H](C(=O)O)C(C)C)C(C)C [8.121mod] (H-WLFKLVPV-OH),183 nM
21,CC(C)C[C@H](NC(=O)[C@H](CCCCN)NC(=O)[C@H](Cc1ccccc1)NC(=O)[C@H](CS)NC(=O)[C@@H](N)Cc1c[nH]c2ccccc12)C(=O)N[C@H](C(=O)N1CCC[C@H]1C(=O)N[C@H](C(=O)O)C(C)C)C(C)C [8.121nat] (H-WCFKLVPV-OH),200 nM
22,CC[C@H](C)[C@H](NC(=O)[C@@H]1CCCN1C(=O)[C@@H]1CCCN1C(=O)[C@H](CC(N)=O)NC(=O)[C@H](CC(C)C)NC(=O)[C@@H](N)[C@@H](C)O)C(=O)N1CCC[C@H]1C(=O)N[C@H](C(=O)O)C(C)C [8.123mod] (H-TLNPPIPV-OH),11 nM
23,CC[C@H](C)[C@H](NC(=O)[C@@H]1CCCN1C(=O)[C@@H]1CCCN1C(=O)[C@H](CC(N)=O)NC(=O)CNC(=O)[C@@H](N)[C@@H](C)O)C(=O)N1CCC[C@H]1C(=O)N[C@H](C(=O)O)C(C)C [8.123natG] (H-TGNPPIPV-OH),700 nM
24,CC[C@H](C)[C@H](NC(=O)[C@H](CCC(=O)O)NC(=O)[C@@H]1CCCN1C(=O)[C@H](CC(=O)O)NC(=O)CNC(=O)[C@H](CC(C)C)NC(=O)[C@@H](N)CO)C(=O)N[C@H](C(=O)O)C(C)C [8.130mod] (H-SLGDPEIV-OH),260 nM
25,CC[C@H](C)[C@H](NC(=O)[C@H](CCC(=O)O)NC(=O)[C@@H]1CCCN1C(=O)[C@H](CC(=O)O)NC(=O)CNC(=O)CNC(=O)[C@@H](N)CO)C(=O)N[C@H](C(=O)O)C(C)C [8.130nat] (H-SGGDPEIV-OH),950 nM
26,CC(C)C[C@H](NC(=O)[C@@H](N)Cc1ccccc1)C(=O)NCC(=O)N[C@@H](C)C(=O)N[C@@H](C)C(=O)NCC(=O)N[C@@H](CO)C(=O)N[C@H](C(=O)O)C(C)C [8.135mod] (H-FLGAAGSV-OH),5 nM
27,CC(C)C[C@H](NC(=O)[C@@H](N)Cc1ccccc1)C(=O)NCC(=O)N[C@@H](C)C(=O)N[C@@H](C)C(=O)NCC(=O)N[C@@H](CO)C(=O)N[C@H](C(=O)O)[C@@H](C)O [8.135nat] (H-FLGAAGST-OH),870 nM
28,CC(C)C[C@H](NC(=O)[C@@H](NC(=O)[C@@H](N)CCCNC(=N)N)[C@@H](C)O)C(=O)N[C@@H](CC(N)=O)C(=O)N[C@@H](C)C(=O)N[C@@H](Cc1c[nH]c2ccccc12)C(=O)N[C@H](C(=O)N[C@@H](CCCCN)C(=O)N[C@H](C(=O)O)C(C)C)C(C)C [reference compound] (H-RTLNAWVKV-OH),170 nM
